{
  "source": "patent US20030148963A1",
  "about": "(priority 2000, published 2003)",
  "key": {"[1]": {"system": "S. aureus-induced arthritis", "assay": "Histopathological and immunohistochemical examination of joints, S. aureus arthritis", "format": "in vivo, NMRI mice", "description": "The mice were sacrificed 6 days after bacterial inoculation One front and one hind paw from each animal in both groups (etoposide-treated and controls) were removed. Histopathological examination was performed after routine fixation, decalcification, paraffin embedding, and staining with hematoxylin and eosin. All the slides were coded and the joints were studied with regard to synovial hypertrophy (defined as a synovial membrane thickness of more than two cell layers), pannus formation (synovial tissue overlaying the joint cartilage), and cartilage and bone destruction.\nIn another experiment, mice were killed by cervical dislocation 6 days after bacterial inoculation, all four limbs were removed and demineralized by a procedure detailed in an earlier report. The demineralized specimens were mounted on cryostat chucks, frozen in isopentane prechilled by liquid nitrogen, and kept at −70° C. until cryosectioned. Six μm-thick sections were cut frontally to permit simultaneous inspection of most joints within the paw. All sections were fixed in cold acetone for 5 min, washed in PBS, and depleted of endogenous peroxidase by treatment with 0.3% H2O2 for 5 min. The sections were incubated overnight in a humid atmosphere at +4° C. with 50 μl portions of unlabelled rat monoclonal antibody specific for macrophages (Mac-3, clone M3/84 from PharMingen), diluted in PBS containing 1% BSA. Biotin-labelled rabbit antl-rat Ig diluted in PBS-BSA was used as secondary antibody. Binding of secondary antibodies was detected by stepwise incubation with avidin-biotin-peroxidase complexes (ABC) and a buffert containing 3-amino-9-ethyl-carbazole and H2O2. All sections were counterstained with Mayer's hematoxylin."}, "S. aureus LS-1": {"system": "S. aureus LS-1", "assay": "Determination of bacterial growth in kidneys, blood and joints", "format": "in vivo", "conditions": "for Bacterial growth in blood / Bacterial growth in kidney: mean ± SEM", "description": "On days 3 and 6-7 after S. aureus inoculation blood samples were obtained and the kidneys were aseptically removed. Appropriate dilutions were made and 0.1 ml of tissue suspensions and of whole blood was plated on agar plates containing 5% horse blood. Six days after the inoculation bacterial samples from the talocrural and radiocarpal joints were obtained and plated on agar plates, containing 7.5% sodium chloride. After incubation for 48 h at 37° C. the bacterial colonies were counted and tested for catalase and coagulase activity."}, "IL-6 [2]": {"system": "IL-6", "format": "cell-based, NMRI mice", "conditions": "24 h supernatant"}, "IL-6 [3]": {"system": "IL-6", "format": "cell-based, NMRI mice", "conditions": "spleen cells from non-infected in vivo etoposide-treated mice; mean ± SEM, four mice"}, "spleen mononuclear cells": {"system": "spleen mononuclear cells", "format": "cell-based, NMRI mice", "conditions": "spleen cells from non-infected mice treated once a day for three days vs controls; FIG. 3"}, "IFN-γ": {"system": "IFN-γ", "assay": "Serum IFN-γ in CII immunized mice (ELISA)", "format": "in vivo, B10.QxDBA/1 female mice", "conditions": "serum at end of experiment, mean ± SEM", "description": "(§1) For quantification of serfu CII antibodies, 96-well plates (Nunc, Roskilde, Denmark) were coated overnight at 4° C. with 10 μg/ml of native CII. Standards and samples were diluted in 0.5% BSA-PBS. Biotinylated F(ab/)2 fragments of goat anti-mouse IgG (Jackson ImmunoResearch Laboratories, West Grove, Pa.) was used as secondary antibody. Development was performed using horseradish peroxidase 0.5 μg/ml and 2.5 mg of the enzyme substrate 2,2-azino-bis-(3-ethylbenzothiazoline sulfonic acid) (Sigma) per mal in citrate buffer (pH 4.2), containing 0.0075% H2O2. The absorbance was measured at 405 nm in a SPECTRAmax spectrophotometer (Molecular Devices, Calif.). IFN-γ levels in sera were quantified with an ELISA system previously described (13). Ninety-six well plates (Nunc) were coated with 2 μg/ml of rat anti-mouse IFN-γ mab (Pharmingen, San Diego, Calif.). Sera, recombinant IFN-γ (Genzyme, Cambridge, Mass.), biotinylated antibodies were all diluted in 0.05 M Tris pH 7.4+0.015 M NaCl. A biotinylated anti mouse IFN-γ antibody (2 μg/ml) (Pharmigen) was used as secondary antibody. After incubation with extravidin alkaline phosphatase 0.5 ?g/ml and alkaline phosphatase substrate 1 mg/ml (Sigma) the absorbance was measured at 405 nm. Interleukin 6 (IL-6) levels in serum and supernatants were measured by a bioassay using cell line B13.29, subclone B9, which is dependent on IL-6 for growth. […]"}, "IL-6 [4]": {"system": "IL-6", "assay": "Serum IL-6 in CII immunized mice (B9 bioassay)", "format": "in vivo, B10.QxDBA/1 female mice", "conditions": "serum at end of experiment, mean ± SEM", "description": "as §1"}, "IL-6 [5]": {"system": "IL-6", "assay": "IL-6 release by IC-21 macrophage cell line", "format": "cell-based, murine", "description": "These cells display many typical features of the macrophage phenotype and are therefore a suitable model for studying cytoline and chemokine release during inflammation (16). The cells were maintained in continous culture using RPMI-1640 supplemented with 10% FCS, L-glutamine, and gentamycin. When the cells had grown to about 70% confluency, they were seeded into a 24-well-plate (Nunc) at a concentration of 1×10^5 per well and incubated at 37° C. in 5% CO2 for 24 h. […] After 24 h of incubation, the cells were washed once with PBS, and reincubated with medium containing different concentrations (1, 10, 100, 1000 ng/ml) of LPS (Difco) and IFN-γ (10, 50, 100 u/nml). The interferon-γ was purified from the supernatants from Chinese hanater ovary (CHO) cells transfected with the murine IFN-γ gene (hybridoma kindly provided by Dr. Morris, Department of Biological Sciences, University of Warwick, Coventry, UK). After 2 and 24 h of incubation the supernatants were collected and stored at −20° C. until analysis."}, "[6]": {"conditions": "Day 3 after 1-2×10^7 CFU S. aureus"}, "[7]": {"conditions": "Day 6-7 after 1-2×10^7 CFU S. aureus"}, "[8]": {"conditions": "etoposide 1 μM, mean ± SEM, four mice"}, "[9]": {"conditions": "Etoposide-treated (from day 40)"}},
  "note": "Like-named read-outs stand apart in the source and are kept apart here. Marks after values point to notes of the source that are not given here.",
  "data": [
    {"smiles": "COc1cc([C@@H]2c3cc4c(cc3[C@@H](O[C@@H]3O[C@@H]5CO[C@@H](C)O[C@H]5[C@H](O)[C@H]3O)[C@H]3COC(=O)[C@H]23)OCO4)cc(OC)c1O", "note": "[Etoposide]", "values": [
      {"measurement": "Mice with cartilage and bone destructions", "setting": "[1]; 6 days after S. aureus inoculation, controls 8 out of 10", "value": "4 out of 8"},
      {"measurement": "Mice with synovial hypertrophy", "setting": "[1]; 6 days after S. aureus inoculation, controls 9 out of 10", "value": "4 out of 8"},
      {"measurement": "Numbers of Mac-3 positive cells in joints", "setting": "[1]; S. aureus infected, etoposide vs PBS, data not shown", "value": "did not show any significant differences"},
      {"measurement": "Mice with bacteria recovered from joints", "setting": "S. aureus LS-1; 6 days after inoculation, controls 3 out of 10", "value": "3 out of 8"},
      {"measurement": "Bacterial growth in blood", "setting": "S. aureus LS-1; [6]", "value": "60 × 10^7 CFU/ml"},
      {"measurement": "Bacterial growth in kidney", "setting": "S. aureus LS-1; [6]", "value": "3 ± 2 × 10^7 CFU"},
      {"measurement": "Bacterial growth in blood", "setting": "S. aureus LS-1; [7]", "value": "290 ± 100 × 10^7 CFU/ml"},
      {"measurement": "Bacterial growth in kidney", "setting": "S. aureus LS-1; [7]", "value": "67 ± 12 × 10^7 CFU"},
      {"measurement": "IL-6, ConA stimulated", "setting": "IL-6 [2]; [8]", "value": "825 ± 455", "unit": "pg/mL"},
      {"measurement": "IL-6, TSST-1 stimulated", "setting": "IL-6 [2]; [8]", "value": "45 ± 16", "unit": "b pg/ml"},
      {"measurement": "IL-6, ConA stimulated", "setting": "IL-6 [2]; etoposide 10 μM", "value": "<10^b pg/ml"},
      {"measurement": "IL-6, TSST-1 stimulated", "setting": "IL-6 [2]; etoposide 10 μM", "value": "<10^b pg/ml"},
      {"measurement": "IL-6, ConA stimulated", "setting": "IL-6 [2]; etoposide 100 μM", "value": "<10^b pg/ml"},
      {"measurement": "IL-6, TSST-1 stimulated", "setting": "IL-6 [2]; etoposide 100 μM", "value": "<10^b pg/ml"},
      {"measurement": "IL-6, ConA stimulated", "setting": "IL-6 [3]", "value": "455 ± 85^b pg/ml"},
      {"measurement": "IL-6, TSST-1 stimulated", "setting": "IL-6 [3]", "value": "255 ± 66", "unit": "b pg/ml"},
      {"measurement": "Proliferative response, Con A stimulated", "setting": "spleen mononuclear cells", "value": "not when stimulated with Con A"},
      {"measurement": "Proliferative response, TSST-1 stimulated", "setting": "spleen mononuclear cells", "value": "lower proliferative response"},
      {"measurement": "IFN-g", "setting": "IFN-γ; Etoposide-pretreated", "value": "1848 ± 248^c u/ml"},
      {"measurement": "IFN-g", "setting": "IFN-γ; [9]", "value": "2094 ± 199^b u/ml"},
      {"measurement": "IL-6", "setting": "IL-6 [4]; Etoposide-pretreated", "value": "117 ± 21", "unit": "a pg/ml"},
      {"measurement": "IL-6", "setting": "IL-6 [4]; [9]", "value": "179 ± 21^b pg/ml"},
      {"measurement": "Levels of IL-6 in supernatants", "setting": "IL-6 [5]; IC-21, stimulated with IFN-γ, levels very low, FIG. 6B", "value": "seemed to be upregulated"},
      {"measurement": "Levels of IL-6 in supernatants", "setting": "IL-6 [5]; IC-21, stimulation by LPS, FIG. 6A", "value": "downregulated"}
    ]}
  ]
}
